Experiments:
[1] = clinical study of oral methscopolamine bromide as antispasmodic medication in colonoscopy; format: in vivo; conditions: 10 mg oral one hour before colonoscopy; 25 patients; control subjects 30%
Procedure: A clinical study was undertaken with oral methscopolamine bromide as an antispasmodic medication in colonoscopy. The study comprised of 40 non-randomized patients. Thirty patients were given oral methscopolamine bromide prior to the procedure. […] The dose was increased to 10 mg for the following 25 patients. For the purpose of the study, in terms of spasm control a “success” was defined as a colonoscopy where there was no significant spasm on insertion and no intravenous Buscopan® was required. A failure was defined as the requirement of intravenous Buscopan® (antispasmodic). […] The study had both male and female patients.

[2] = following oral administration; cited from earlier work
[3] = in vivo; cited from earlier work

For C[N+]1(C)[C@@H]2C[C@@H](OC(=O)[C@H](CO)c3ccccc3)C[C@H]1[C@@H]1O[C@@H]12 [methscopolamine bromide], the “patients with minimal or no spasm” value [1] is listed as 64%, the “time until drug effects appear” value [2] is listed as “about one” and the “ability to cross the blood-brain-barrier” value [3] is listed as “limited ability to cross the blood-brain-barrier”. The route of excretion [3] was “excreted primarily in the urine and bile, or as unabsorbed drug in feces”.

Source: patent publication US20040127512A1, “Method of treating symptoms of non-constipated irritable bowel syndrome” (Bradley Pharmaceuticals, Inc., priority 2002, published 2004)
